Measured values published in US20210393549A1, “New use of R-enantiomer of adrenergic beta 2 receptor agonists for treatment of inflammatory bowel disease and its extra intestinal manifestations” (priority 2018, published 2021).

Tests used:
[1] = system: acne, maliaria, hives and eczema; assay: Topical use on acne, maliaria, hives and eczema; type: in vivo
[2] = system: DSS induced sub-acute colitis; type: in vivo; set-up: DAI (disease active index) / FOB (fecal occult blood) / Hist score (histological score): scale not given here; Weight / Col Length (colon length): unit not given here
Source text: This invention also disclosed the used of R-salbutamol for treatment of sub acute or chronic phases of IBD. In one embodiment, IBD was induced by DSS as mentioned above, along with the treatment of R-salbutamol, at day 7th, DSS was removed and replaced with drinking water for additional 2 weeks. The disease active index (DAI) of mice was examined and evaluated periodically. The mice were scarified for pathological and histological evaluations at day of 23rd. In DSS induce IBD mice, there were significant loss of weight and fecal occult blood at day 14th and 22nd. The overall condition of colitis was severe although there was slightly improvement comparing the day 7th. The colon-rector length was significant shortened, and histological score were significant higher from control. In mice with DSS induced colitis, there were significant mononuclear leucocytes infiltration, few newly grew crypts with architectural disarray, denegation of epithelia, mucosa aberrant. There was also deep mucosal lymphocytosis, destruction of lamina propria and sometimes, transmural inflammation.
Same as example 1, except • 1), Three weeks' study with one week treatment.
DSS and all the treatment was removed and replaced with drinking water at the end of 1st week. Mice were given drink water and food ad libitum for additional 2 weeks.

[3] = system: signal transducer and activator of transcription protein (Stat 2); assay: Stat 2 mRNA expression in psoriasis mice; type: in vivo; conditions: plasma of psoriasis mice, dose-response fashion
Source text: (§1) There was enhanced expression of mRNA of Janus kinase 2 (JAK2), a non-receptor tyrosine kinase, and the signal transducer and activator of transcription protein (Stat 2) in the plasma of psoriasis mice in comparison of control, Indicating an increase of JAK2 and Stat 2 proteins. These over expression of mRNA was inhibited by R-salbutamol in a dose-response fashion. (FIG. 3 left & right)

[4] = system: IMQ-induced Psoriasis-Like Skin lesions; assay: IMQ-induced psoriasis-like skin lesions; type: in vivo, mice
Protocol: Mice were divided into control, psoriasis and psoriasis plus treatment groups, (n=8 in each group). Psoriasis were induced by topical application of imiquimod cream (62.5 mg) on shaved dorsal skin for seven consecutive days. Vaseline was used in control group. There were four treatment groups: three doses of R-salbutamol (R-Sal) (0.5 mg, 1 mg, 2 mg/kg) and Dexamethasone (1 mg/kg) as positive control. All the treatments and same volume of saline (in control group) were administered orally. In some experiment, R-bambuterol (long-last beta2 agonist) was used as an additional treatment group (n=3). Psoriasis Area Severity Index were used for evaluation. Each of the scores for erythema, scaling and skin thickness were measured separately and then group together as a calculative score. (FIG. 2)

[5] = system: Janus kinase 2 (JAK2); assay: JAK2 mRNA expression in psoriasis mice; type: in vivo; conditions: plasma of psoriasis mice, dose-response fashion
Source text: as §1

[6] = system: psoriasis and eczema; assay: Oral administration in rats, psoriasis and eczema; type: in vivo
[7] = system: DSS induced sub-acute colitis; type: in vivo; conditions: treatments started at day 7th till day 22nd
[8] = one week treatment, evaluation at 23rd day, R-S, S-S 1 mg/kg, R-B, S-B 10 mg/kg
[9] = sub-acute or chronic DSS colitis, compared with untreated DSS mice

SMILES: CC(C)(C)NC[C@H](O)c1ccc(O)c(CO)c1 [R-S, R-salbutamol]
- symptoms of acne, maliaria, hives and eczema [1]: significantly alleviated
- Col Length (colon length) [2, 8]: 8.2 ± 0.6
- DAI (disease active index) [2, 8]: 4
- FOB (fecal occult blood) [2, 8]: 0.5 ± 0.5
- Hist score (histological score) [2, 8]: 3 ± 0.5
- Weight [2, 8]: 114 ± 0.2
- DAI, in words [2, 9]: significant improved
- histological index / histological score, in words [2, 9]: significantly ameliorated
- fecal occult blood, in words ([2]; sub-acute or chronic DSS colitis, day 14th and 22nd, compared with untreated DSS mice): significantly reduced
- over expression of mRNA of Stat 2 [3]: inhibited
- Psoriasis Area Severity score, high dose ([4]; R-salbutamol 2.0 mg/kg oral): best effects for all the scores
- dose dependence of Psoriasis Area Severity score ([4]; R-salbutamol 0.5, 1, 2 mg/kg oral): dose-dependent response
- histology of psoriasis skin lesions (HE) ([4]; dorsal skin, IMQ-induced psoriasis mice): mostly recovered
- Psoriasis Area Severity score ([4]; oral, R-salbutamol 0.5, 1, 2 mg/kg, Dexamethasone 1 mg/kg, compared with psoriasis group): significantly reduced
- over expression of mRNA of JAK2 [5]: inhibited
- psoriasis and eczema [6]: significantly ameliorate
- therapeutic effects in DSS induced IBD mice [7]: significant therapeutic effects
